Measurements as given in patent US20250241908A1 (SHANGHAI YAO YUAN BIOTECHNOLOGY CO., LTD., priority 2022, published 2025).
Read-outs that look alike come from different tables or passages of the source.

Experiments:
ALPK1 = ALPK1 (Homo sapiens (Human), UniProt Q96QP1); assay: ALPK1 in vitro kinase assay (HTRF, TIFA phosphorylation); type: biochemical; conditions: HTRF of HA-tagged TIFA; ALPK1 2 nM; ADP-Heptose as activator
Experimental: ALPK1 kinase activity was measured in an in vitro assay using ADP-Heptose as the ALPK1 ligand and activator of its kinase activity and TIFA protein as the ALPK1 phosphorylation substrate. Since phosphorylated TIFA proteins oligomerize, Homogeneous Time-Resolved Fluorescence (HTRF) was used to measure protein: protein interaction between HA-tagged TIFA proteins as an indicator of TIFA phosphorylation.
In brief, dose-response studies were performed in 384-well assay plates. Each well contained 0.1 mg TIFA, ALPK1 (2 nM final concentration in reaction mixture) and kinase buffer (100 mM of HEPES pH 7.4, 4 mM DTT, 40 mM MgCl2, 20 mM of β-Glycerol phosphate disodium salt, 0.4 mM of Na3 VO4, 0.16 mg/mL). Titrations of the test compounds were prepared in dimethylsulphoxide (DMSO). The reaction was initiated by addition of ATP and ADP-Heptose.
For HTRF, samples were incubated with a Tb cryptate-labeled anti-HA antibody for capturing HA-tagged proteins according to the manufacturer's instructions (PerkinElmer™, CisBio™) and the fluorescence signal was quantified (Tecan Infinite F NANO+). HTRF signals were calculated as the HTRF ratio (ratio of fluorescence measured at 665 nm and 620 nm)×104 (thereby using the signal at 620 nm as an internal standard).
IC50 values were determined using 3- or 4-parameter logistic equation using GraphPad Prism version 6.00.

[1] = test system: ALPK1-dependent gene expression in PBMC; assay: Inhibition of ALPK1 in PBMC cells; type: in vivo, Sprague-Dawley (SD) rats; conditions: SD rats, 10 mpk oral, ALPK1 agonist ip 2 h later, blood 3 h after agonist; compared with vehicle group
Experimental: We examined whether ALPK1 inhibitors can suppress ALPK1-dependent activation of a set of such genes in rats. […] PBMCs were collected and gene expression analyzed, as described in more detail below.
After 3 hours administration of the ALPK1 agonist, the blood was collected from heart, and PBMC were extracted from each group.

[2] = test system: ALPK1-TIFA-IL1β pathway in THP-1-derived macrophage cells; assay: PMA-differentiated THP-1 cell based assay; conditions: for IC50: Homo sapiens, PMA-differentiated THP-1 cells stimulated with ALPK1 agonist
Experimental: We evaluated the ability of ALPK1 inhibitors to suppress IL1β, IL8 and TNF-α levels following ALPK1 activation in THP-1-derived macrophage cells. […] Inhibitory activity is measured as suppression of IL1β.
THP-1 cells were cultured in RPMI 1640 containing 10% heat inactivated FBS, penicillin (100 units/ml) and streptomycin (100 μg/ml), and maintained in a humidified incubator with 95% atmospheric air and 5% CO2. Prior to the experiment, THP-1 cells were seeded into 24-well flat-bottom plate at a cell density of 40,0000 cells/well. Phorbol myristate acetate (PMA; 50 ng/ml) was used to treat THP-1 cells for 48 h, and then THP-1-derived macrophages were obtained. […] Total RNA was extracted using the TRIzol method and reverse-transcribed. The mRNA expression levels IL1β, IL8 and TNF-α were detected by SYBR green gene expression assays. Expression levels of mRNA were normalized to GAPDH. Relative expression was calculated by comparing to vehicle control and the values were plotted as fold induction. All activity results were expressed as the mean of triplicate determinations. IC50 was determined from dose response curve using Prism Software, version 6.00 from GraphPad Software.

[3] = test system: OSS-induced inflammatory signaling in ECs (HUVECs); assay: Oscillatory shear stress (OSS) in HUVECs; type: cell-based, human; conditions: oscillatory flow 0.5±4 dyn/cm2 for 6 hours, 300 nM
Experimental: For flow experiments, confluent monolayers of HUVECs were seeded on glass slides, Static condition (ST) without any treatment served as control and a parallel plate flow system was used to impose oscillatory flow (0.5±4 dyn/cm2) for 6 hours.

[4] = test system: carotid artery of Guinea Pig after PCL surgery; assay: Guinea pig, high fat diet, Partial Carotid Ligation model; type: in vivo; conditions: 6 weeks high fat diet
[5] = test system: innate immunity gene expression following ALPK1 activation; assay: Inhibition of ALPK1 in coronary artery, aorta, and heart muscle; type: in vivo, Sprague-Dawley (SD) rats; conditions: SD rats, 40 mpk oral, ALPK1 agonist ip 2 h later, tissue 3 h after agonist; compared with vehicle group
[6] = test system: ALPK1-TIFA pathway target gene mRNA in HASMC; assay: Primary Human Aorta Smooth Muscle Cell-based assay; conditions: for IC50: Homo sapiens, HASMC stimulated with ALPK1 agonist
Experimental: Primary Human Aorta smooth muscle Cells (HASMC) grow in Smooth muscle Cell Basal Media supplemented with Smooth Muscle Cell Growth Kit components (PriMed-iCell-002, iCell), provide an ideal cell system to propagate HASMC.
Briefly, primary HASMC were seeded at a density of 25000 cells per well to a collagen coated 24-well culture plate. […] Total RNA was extracted using the RNeasy mini kit method and reverse-transcribed. The mRNA expression levels of target genes were detected by SYBR green gene expression assays. Expression levels of mRNA were normalized to HPRT. Relative expression was calculated by comparing to vehicle control and the values were plotted as fold induction. All activity results were expressed as the mean of triplicate determinations. IC50 was determined from dose response curve using Prism Software, version 6.00 from GraphPad Software.

[7] = test system: PCL induced atherosclerosis in ApoE knockout mice; assay: ApoE mice, high fat diet, Partial Carotid Ligation atherosclerosis model; type: in vivo, mouse; conditions: high fat diet, 1, 3, 9 mg/kg oral once daily for 2 weeks from PCL surgery
Text: To determine the efficacy of ALPK1 inhibitor in atherosclerosis, we treat the ApoE mice with High Fat Diet (Research Diet, D12109C), and perform Partial Carotid Ligation (PCL) surgery on left Carotid artery as described previously (Zhang, Chenghu et al. “Coupling of Integrin a5 to Annexin A2 by Flow Drives Endothelial Activation.” Circulation research vol. 127, 8 (2020): 1074-1090) to accelerate the development of atherosclerosis. […] Two weeks later, the carotid artery of ligated side was collected, the contralateral carotid from vehicle group were served as control. The carotid was fixed and sectioned. The wall thicknesses were quantified by software.

ALPK1, sequence (Q96QP1 whole entry): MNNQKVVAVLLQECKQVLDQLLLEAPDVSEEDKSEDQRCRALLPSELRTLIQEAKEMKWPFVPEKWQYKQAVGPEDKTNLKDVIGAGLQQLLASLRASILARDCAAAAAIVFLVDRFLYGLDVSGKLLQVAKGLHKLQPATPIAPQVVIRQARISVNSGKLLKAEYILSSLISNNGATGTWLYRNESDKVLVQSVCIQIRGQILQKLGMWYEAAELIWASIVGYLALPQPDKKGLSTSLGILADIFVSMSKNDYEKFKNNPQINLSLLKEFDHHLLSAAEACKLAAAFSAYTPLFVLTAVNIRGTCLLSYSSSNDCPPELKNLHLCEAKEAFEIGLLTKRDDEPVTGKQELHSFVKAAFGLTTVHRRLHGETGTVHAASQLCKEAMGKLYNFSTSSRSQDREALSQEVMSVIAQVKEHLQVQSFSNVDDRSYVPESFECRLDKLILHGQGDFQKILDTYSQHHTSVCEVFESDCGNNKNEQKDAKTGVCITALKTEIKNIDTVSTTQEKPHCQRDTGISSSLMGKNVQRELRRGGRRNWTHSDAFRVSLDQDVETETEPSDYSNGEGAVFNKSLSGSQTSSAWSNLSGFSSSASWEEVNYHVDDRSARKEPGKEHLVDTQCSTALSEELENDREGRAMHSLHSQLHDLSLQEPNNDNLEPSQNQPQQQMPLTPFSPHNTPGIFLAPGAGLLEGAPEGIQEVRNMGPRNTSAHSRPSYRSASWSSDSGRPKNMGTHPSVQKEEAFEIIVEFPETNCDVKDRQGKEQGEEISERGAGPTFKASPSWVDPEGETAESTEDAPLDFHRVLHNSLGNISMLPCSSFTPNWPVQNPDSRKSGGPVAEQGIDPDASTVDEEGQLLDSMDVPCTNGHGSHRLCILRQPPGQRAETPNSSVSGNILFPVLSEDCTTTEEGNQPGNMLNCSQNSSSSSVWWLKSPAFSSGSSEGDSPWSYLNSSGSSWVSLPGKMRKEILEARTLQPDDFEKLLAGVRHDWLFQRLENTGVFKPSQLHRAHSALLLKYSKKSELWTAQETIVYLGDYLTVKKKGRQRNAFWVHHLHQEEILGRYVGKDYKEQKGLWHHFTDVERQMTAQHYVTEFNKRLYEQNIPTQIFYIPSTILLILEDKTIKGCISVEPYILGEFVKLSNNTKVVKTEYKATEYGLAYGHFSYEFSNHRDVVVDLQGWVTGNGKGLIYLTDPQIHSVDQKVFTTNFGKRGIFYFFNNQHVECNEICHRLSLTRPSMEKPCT

## COc1ccc(C(C)(C)c2csc(NC(=O)c3ccc(N4CCNCC4C)cc3)n2)cc1 (centres unmarked) [Compound B014]
ALPK1
  IC50: 300 nM

## C#C[C@@](C)(c1ccc(Cl)cc1)c1csc(NC(=O)NCCO)n1 [Compound A176, (S)-1-(4-(2-(4-chlorophenyl)but-3-yn-2-yl)thiazol-2-yl)-3-(2-hydroxyethyl)urea]
[1]
  PBMC mRNA expression for CCL-2, CCL-7, CXCL-1, CXCL-10, CXCL-11 and IL-1β: significant decreases
[2]; THP-1-derived macrophages
  inhibition of IL1β induced by ALPK1 activation: potent inhibition

## C#C[C@@](C)(c1ccc(Cl)cc1)c1csc(NC(=O)c2c(F)cc(N3CCNCC3)cc2F)n1 [Compound C008, (S)-N-(4-(2-(4-chlorophenyl)but-3-yn-2-yl)thiazol-2-yl)-2,6-difluoro-4-(piperazin-1-yl)benzamide]
[1]
  PBMC mRNA expression for CCL-7, CXCL-1, CXCL-10, CXCL-11, IL-1β, TNF-α and IL-6: significant decreases
[3]
  OSS-induced inflammatory signaling in ECs (E-selectin and inflammatory cytokine mRNA): reduced
[2]; read-out: IL-8 mRNA IC50
  IC50: 6 nM
[2]; read-out: TNF-α mRNA IC50
  IC50: 9 nM
[2]; THP-1-derived macrophages
  inhibition of IL1β induced by ALPK1 activation: potent inhibition
  inhibition of IL8 and TNF-α mRNA induced by ALPK1 activation: potent inhibition
[4]
  fibrosis area percentage of the carotid artery (Masson staining): decreased
  liver CYP7A1 expression: elevated CYP7A1 expression dose dependently
  total plasma cholesterol level: dose dependently decreased
  wall thickness of the carotid artery (Masson staining): decreased
[5]
  mRNA expression of aorta IL-6, CXCL-1, CXCL-10, CCL-2: significantly decreased
  mRNA expression of cardiac muscle TNF-α, IL-1b, IL-6, CXCL-1, CXCL-10, CXCL-11, CCL-2 and CCL-5: significantly decreased
  mRNA expression of coronary artery TNF-α, CXCL-1, CCL-2 and CCL-7: significantly decreased
[6]; HASMC
  IL8, TIFA, ICAM-1, VCAM-1 mRNA levels induced by ALPK1 activation: dose dependently inhibited
[6]; read-out: IC50 ICAM-1 mRNA
  IC50: 47 nM
[6]; read-out: IC50 IL8 mRNA
  IC50: 110 nM
[6]; read-out: IC50 TIFA mRNA
  IC50: 115 nM
[6]; read-out: IC50 VCAM-1 mRNA
  IC50: 38 nM
[7]
  PCL induced atherosclerosis (carotid artery wall thickness): dose dependently inhibited

## COc1ccc(C(C)(C)c2csc(NC(=O)c3ccc(N4CCNCC4)cn3)n2)cc1 [Compound B044, N-(4-(2-(4-methoxyphenyl)propan-2-yl)thiazol-2-yl)-5-(piperazin-1-yl)picolinamide]
ALPK1
  IC50: 213 nM
